# Measured values as given in patent US10166216B2 (Rigel Pharmaceuticals, Inc., priority 2006, dated 2019).
# Biological target: Axl (Homo sapiens (Human), UniProt P30530)
# Assay: Phospho-Akt in-cell Western assay (Axl-antibody cross-linking stimulation)
# Type: cell-based
# Settings: inhibition of Axl activity, Hela cells, phospho-Akt readout; Table 1, formula (Ia1)
# Method: The working solution: dilute the stock 1:20 with PBS immediately before use. • 10% SDS: working solution: 5% SDS (sodium dodecylsulfate), diluted in PBS Methods: Day 1:
# A 96 well TC (tissue culture treated) plate was coated with 10 μg/mL poly-L-Lysine at 37° C. for 30 min, washed twice with PBS, and air-dried for 5 minutes before cells were added. Hela cells were seeded at 10,000 cells/well and the cells were starved in 100 μL starvation medium containing Axl/Fc for 24 hrs.
# The cells were pre-treated with test compounds by adding 100 μL of 2× test compound to the starvation medium on the cells. The cells were incubated at 37° C. for 1 hr before stimulation.
# The resulting mix was warmed to 37° C. 50 μL of 5× Axl 1st/2nd of antibody cluster was added to the cells and the cells were incubated at 37° C. for 5 min.
# After 5 minutes stimulation, the plate was flicked to remove medium and the plate was tapped onto paper towels. Formaldehyde (4.0% in PBS, 100 μL) was added to fix the cells and the cells were incubated at ambient temperature for 20 min without shaking.
# The cells were washed with a plate washer buffer to remove the formaldehyde solution. The plate was flicked to removed excess wash buffer and tapped onto paper towels. Quenching buffer (100 μL) was added to each well and the cells were incubated at ambient temperature for 20 minutes without shaking.
# The cells were washed with a plate washer buffer to remove the quenching buffer. Blocking buffer (100 μL) was added and the cells were incubated at ambient temperature for at least an hour with gentle shaking.
# The cells were washed with a plate washer buffer and diluted primary antibody (50 μL) was added to each well (blocking buffer was added to the negative control wells instead). The plates were incubated overnight at 4° C. with gentle shaking.
# The wash buffer was removed, diluted secondary antibody (100 μL) was added, and the cells were incubated at ambient temperature for 1 hour with gentle shaking. During the incubation, the chemiluminescent reagent was brought to ambient temperature.
# The secondary antibody was removed by washing the cells 1× with wash buffer, 1× with PBS by plate washer. The PBS was removed from the plate and the chemiluminescent reagent (80 μL: 40 μL A and 40 μL B) was added to each well at ambient temperature.
# The resulting chemiluminescence was read with a Luminomitor within 10 minutes to minimize changes in signal intensity. […] The plate was tapped onto paper towels to remove excess liquid from wells and air-dried at ambient temperature for 5 minutes.
# Crystal Violet working solution (60 μL) was added to each well and the cells were incubated at ambient temperature for 30 min. The crystal violet solution was removed, and the wells were rinsed with PBS, then washed 3× with PBS (200 μL) for 5 minutes each.
# 5% SDS solution (70 μL) was added to each well and the cells were incubated on a shaker for 30 min at ambient temperature.
# This relative cell number was then used to normalize each luminescence reading. […]
# Chain of Axl (P30530 26-894): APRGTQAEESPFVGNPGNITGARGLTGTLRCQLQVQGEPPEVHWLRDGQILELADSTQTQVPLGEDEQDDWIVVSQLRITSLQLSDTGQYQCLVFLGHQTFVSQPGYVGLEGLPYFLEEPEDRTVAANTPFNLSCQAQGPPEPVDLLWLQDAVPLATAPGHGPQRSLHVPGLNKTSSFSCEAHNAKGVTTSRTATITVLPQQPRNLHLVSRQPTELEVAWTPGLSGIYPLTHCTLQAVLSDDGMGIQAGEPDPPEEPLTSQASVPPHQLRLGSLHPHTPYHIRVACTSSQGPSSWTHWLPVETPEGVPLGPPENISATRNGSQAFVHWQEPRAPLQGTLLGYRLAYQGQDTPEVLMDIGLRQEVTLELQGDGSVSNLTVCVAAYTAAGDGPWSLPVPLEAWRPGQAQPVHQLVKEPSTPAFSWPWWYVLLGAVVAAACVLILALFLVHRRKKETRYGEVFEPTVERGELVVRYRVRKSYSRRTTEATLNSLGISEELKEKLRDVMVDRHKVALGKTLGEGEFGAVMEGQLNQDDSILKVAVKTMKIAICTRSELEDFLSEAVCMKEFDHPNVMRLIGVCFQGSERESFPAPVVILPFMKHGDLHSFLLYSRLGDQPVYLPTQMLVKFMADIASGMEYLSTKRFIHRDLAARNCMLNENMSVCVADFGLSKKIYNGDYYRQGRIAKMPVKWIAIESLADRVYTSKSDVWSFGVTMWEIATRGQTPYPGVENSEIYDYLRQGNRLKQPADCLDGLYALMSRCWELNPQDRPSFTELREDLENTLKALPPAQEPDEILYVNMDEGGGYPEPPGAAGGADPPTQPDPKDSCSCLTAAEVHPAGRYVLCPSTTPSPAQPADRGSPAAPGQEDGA
row,IC50,SMILES
1,10 to 20 µM,"Nc1nc(Nc2ccc(OCCN3CCCCC3)cc2)nn1-c1cccc(N2CCOCC2)n1 [Compound 20, 1-(6-morpholinopyridin-2-yl)-N^3-(4-(2-(piperidin-1-yl)ethoxy)phenyl)-1H-1,2,4-triazole-3,5-diamine]"
2,< 1 µM,"Nc1nc(Nc2ccc(OCCN3CCCC3)c(Cl)c2)nn1-c1ccccn1 [Compound 4, N^3-(3-chloro-4-(2-(pyrrolidin-1-yl)ethoxy)phenyl)-1-(pyridin-2-yl)-1H-1,2,4-triazole-3,5-diamine]"
3,> 20 µM,"Nc1nc(Nc2ccc(OCCN3CCCCC3)cc2)nn1-c1ccccc1F [Compound 28, 1-(2-fluorophenyl)-N^3-(4-(2-(piperidin-1-yl)ethoxy)phenyl)-1H-1,2,4-triazole-3,5-diamine]"
4,> 20 µM,"CC1CCCN1CCOc1ccc(Nc2nc(N)n(-c3nc4ccccc4[nH]3)n2)cc1 (centres unmarked) [Compound 24, 1-(1H-benzo[d]imidazol-2-yl)-N^3-(4-(2-(2-methylpyrrolidin-1-yl)ethoxy)phenyl)-1H-1,2,4-triazole-3,5-diamine]"
5,< 1 µM,"COc1cc2ncnc(-n3nc(Nc4ccc(OCCN5CCCC5)cc4)nc3N)c2cc1OC [Compound 45, 1-(6,7-dimethoxyquinazolin-4-yl)-N^3-(4-(2-(pyrrolidin-1-yl)ethoxy)phenyl)-1H-1,2,4-triazole-3,5-diamine]"

# Same assay, conditions: inhibition of Axl activity, Hela cells, phospho-Akt readout; Table 5, formula (Ia3)
row,IC50,SMILES
1,< 1 µM,"COc1cc2ncnc(-n3nc(Nc4ccc(N5CC[C@H](N(C)C)C5)cc4)nc3N)c2cc1OC [Compound 171, 1-(6,7-dimethoxyquinazolin-4-yl)-N^3-(4-((S)-3-(dimethylamino)pyrrolidin-1-yl)phenyl)-1H-1,2,4-triazole-3,5-diamine]"
2,> 20 µM,"CC(C)c1ccc(-n2nc(Nc3ccc(N4CCOCC4)cc3)nc2N)cc1 [Compound 218, 1-(4-isopropylphenyl)-N^3-(4-morpholinophenyl)-1H-1,2,4-triazole-3,5-diamine]"
3,< 1 µM,"CN1CCC(c2ccc(Nc3nc(N)n(-c4nccc5ccccc45)n3)cc2)CC1 [Compound 167, 1-(isoquinolin-1-yl)-N^3-(4-(1-methylpiperidin-4-yl)phenyl)-1H-1,2,4-triazole-3,5-diamine]"

# Same assay, conditions: inhibition of Axl activity, phospho-Akt in-cell Western assay
row,IC50,SMILES
1,> 20 µM,"COc1cc2ncnc(-n3nc(Nc4ccc(N5CCN(C6CC7CCC6C7)CC5)c(F)c4)nc3N)c2cc1OC (centres unmarked) [Compound 123, N^3-(4-(4-(bicyclo[2.2.1]heptan-2-yl)piperazin-1-yl)-3-fluorophenyl)-1-(6,7-dimethoxyquinazolin-4-yl)-1H-1,2,4-triazole-3,5-diamine]"
2,< 1 µM,"COc1cc2ncnc(-n3nc(Nc4ccc(N5CCN(C)CC5)c(F)c4)nc3N)c2cc1OC [Compound 105, 1-(6,7-dimethoxyquinazolin-4-yl)-N^3-(3-fluoro-4-(4-methylpiperazin-1-yl)phenyl)-1H-1,2,4-triazole-3,5-diamine]"
3,< 1 µM,"Nc1nc(Nc2ccc(N3CCN([C@H]4C[C@@H]5CC[C@H]4C5)CC3)cc2)nn1-c1ncnc2ccsc12 [Compound 189, 1-(thieno[3,2-d]pyrimidin-4-yl)-N^3-(4-(4-((1S,2S,4R)-bicyclo[2.2.1]heptan-2-yl)-piperazin-1-yl)phenyl)-1H-1,2,4-triazole-3,5-diamine]"
4,< 1 µM,"CN1CCN(c2ccc(Nc3nc(N)n(-c4ncnc5ccc(Cl)cc45)n3)cc2)CC1 [Compound 85, 1-(6-chloroquinazolin-4-yl)-N^3-(4-(4-methylpiperazin-1-yl)phenyl)-1H-1,2,4-triazole-3,5-diamine]"
5,< 1 µM,"CN1CCN(c2ccc(Nc3nc(N)n(-c4ncc5c(n4)-c4ccccc4CC5)n3)cc2)CC1 [Compound 92, 1-(5,6-dihydrobenzo[h]quinazolin-2-yl)-N^3-(4-(4-methylpiperazin-1-yl)phenyl)-1H-1,2,4-triazole-3,5-diamine]"
6,1 to 10 µM,"CCN1CCN(c2cc(Nc3nc(N)n(-c4ncnc5cc(OC)c(OC)cc45)n3)ccc2Cl)CC1 [Compound 119, N-(4-chloro-3-(4-ethylpiperazin-1-yl)phenyl)-1-(6,7-dimethoxyquinazolin-4-yl)-1H-1,2,4-triazole-3,5-diamine]"
7,> 20 µM,"Cc1cccc(-c2nc(-n3nc(Nc4ccc(N5CCN(C6CC7CCC6C7)CC5)cc4)nc3N)c3scc(C)c3n2)c1 (centres unmarked) [Compound 233, 1-(7-methyl-2-m-tolylthieno[3,2-d]pyrimidin-4-yl)-N^3-(4-(4-(bicyclo[2.2.1]heptan-2-yl)piperazin-1-yl)phenyl)-1H-1,2,4-triazole-3,5-diamine]"
8,< 1 µM,"Nc1nc(Nc2ccc(N3CCN([C@H]4C[C@@H]5CC[C@H]4C5)CC3)cc2)nn1-c1nc(Cl)nc2ccsc12 [Compound 179, 1-(2-chlorothieno[3,2-d]pyrimidin-4-yl)-N^3-(4-(4-((1S,2S,4R)-bicyclo[2.2.1]heptan-2-yl)-piperazin-1-yl)phenyl)-1H-1,2,4-triazole-3,5-diamine]"
9,1 to 10 µM,"Cc1csc2c(-n3nc(Nc4ccc(N5CCN([C@H]6CC7CCC6C7)CC5)cc4)nc3N)nc(C=CCN3CCCC3)nc12 (stereo partly drawn) [Compound 239, 1-(7-methyl-2-(3-(pyrrolidin-1-yl)prop-1-enyl)thieno[3,2-d]pyrimidin-4-yl)-N^3-(4-(4-((2S)-bicyclo[2.2.1]heptan-2-yl)piperazin-1-yl)phenyl)-1H-1,2,4-triazole-3,5-diamine]"
10,< 1 µM,"CN1CCN(c2ccc(Nc3nc(N)n(-c4nccc5ccccc45)n3)cc2)CC1 [Compound 84, 1-(isoquinolin-1-yl)-N^3-(4-(4-methylpiperazin-1-yl)phenyl)-1H-1,2,4-triazole-3,5-diamine]"
11,< 1 µM,"Cc1cc(Nc2nc(N)n(-c3ncnc4c(C)csc34)n2)ccc1N1CCN([C@H]2C[C@@H]3CC[C@H]2C3)CC1 [Compound 252, 1-(7-methylthieno[3,2-d]pyrimidin-4-yl)-N^3-(3-methyl-4-(4-((1S,2S,4R)-bicyclo[2.2.1]heptan-2-yl)piperazin-1-yl)phenyl)-1H-1,2,4-triazole-3,5-diamine]"
12,< 1 µM,"Cc1csc2c(-n3nc(Nc4ccc(N5CCN(C6CC7CCC6C7)[C@@H](C)C5)c(F)c4)nc3N)ncnc12 (stereo partly drawn) [Compound 249, 1-(7-methylthieno[3,2-d]pyrimidin-4-yl)-N^3-(3-fluoro-4-(3-(S)-methyl-4-(bicyclo[2.2.1]heptan-2-yl)piperazin-1-yl)phenyl)-1H-1,2,4-triazole-3,5-diamine]"
13,< 1 µM,"Cc1csc2c(-n3nc(Nc4ccc(N5CCN(C6CC7CCC6C7)CC5)cc4)nc3N)nc(-c3cccc(C#N)c3)nc12 (centres unmarked) [Compound 234, 1-(7-methyl-2-(3-cyanophenyl)thieno[3,2-d]pyrimidin-4-yl)-N^3-(4-(4-(bicyclo[2.2.1]heptan-2-yl)piperazin-1-yl)phenyl)-1H-1,2,4-triazole-3,5-diamine]"
14,1 to 10 µM,"COc1ccc2nc(Cl)c(-n3nc(Nc4ccc(N5CCN([C@H]6C[C@@H]7CC[C@H]6C7)CC5)c(F)c4)nc3N)nc2c1 [Compound 227, 1-(2-chloro-6-methoxy-quinoxalin-3-yl)-N^3-(3-fluoro-4-(4-((1S,2S,4R)-bicyclo[2.2.1]heptan-2-yl)piperazin-1-yl)phenyl)-1H-1,2,4-triazole-3,5-diamine]"

row,SMILES,IC50
1,Cc1csc2c(-n3nc(Nc4ccc(N5CCN([C@H]6C[C@@H]7CC[C@H]6C7)[C@@H](C)C5)c(F)c4)nc3N)nc(Cl)nc12 [Compound 257],< 1 µM
